{"source": "paper PMC12439166", "about": "“Dietary flavonoids form supramolecular assemblies, alter biochemistry, and enhance cell resilience” (Frontiers in Nutrition, 2025)", "system": "human fibroblasts", "assay": "TMT proteomics of fibroblasts with and without UV exposure, differential expression and pathway analysis", "assay_type": "cell-based", "settings": "result in words", "procedure": "Human fibroblasts were obtained from Cell Applications Inc (Cat. # 106-05a) and were maintained in Dulbecco’s Modified Eagle medium (DMEM, Corning, Cat. #10-013-CV) with 10% fetal bovine serum (Gibco, Cat. #10082147) and 1% penicillin/streptomycin (Gibco, Cat. # 15070-063) in a humidified incubator with 5% CO2 at 37 °C. For ultraviolet radiation, fibroblasts were seeded in a 96-well plate at a density of 25,000 cells/well and maintained at 37 °C for 24 h. Cells were washed once with Hanks’ balanced salt solution (HBSS, Gibco, Cat. #14025-092), then treated for 1 h with different concentrations of compounds prepared in HBSS. Vitamin C (Sigma, Cat. # A5960) served as a positive control. Treated cells were exposed to ultraviolet light (UVP cross-linker, CL1000, 254 nm UV, 8 watts) at a total dose of 20 mJ/cm^2. Following irradiation, the HBSS was replaced with culture medium containing the same concentration of compounds as before irradiation, and cells were again maintained at 37 °C. Cell viability was measured at 24 h post-irradiation using CellTiter-Glo according to the manufacturer’s instructions (Promega, Cat.# G7571). Results were expressed as relative cell viability (%) with respect to control cells (cells without ultraviolet irradiation or compound treatment).\nFrozen cell pellets were dissolved for 15 min in 6M Guanidinium Chloride at room temperature to lyse cells. Then, each solution was run on a 10 kDa filter (Pall, TX) and washed with 50 μL of TEAB buffer at 3000 rpm. FASP Digestion ([56]): A stock solution of Trypsin Platinum, Mass Spec Grade (Promega) at 100 μg/mL in 50 mM TEAB, and a specific volume of stock trypsin was added to each sample vial for each set of […] using a 1:50 ratio (Trypsin:Protein). Samples were incubated for 2 h at 50 °C and shaken/mixed at 350 rpm on an Eppendorf ThermoMixer C. TMT Labeling: Samples, now peptides, were labeled using 4 μL of TMTpro Mass Tag Labels (ThermoScientific). After labeling, samples were then shaken/mixed for 45 min to ensure labels were covalently bonded to peptides. The labeling reaction was quenched for 10 min using 1 μL of 5% hydroxyalamine. After quenching, samples were pooled into one 2 mL Eppendorf tube and then dried down using an Eppendorf Vacufuge Plus. Desalting Samples: Dried samples were resuspended in 300 μL of 0.1% TFA in ultrapure HPLC-grade water and vortexed to ensure full solubility. Samples were then desalted using Pierce^TM Peptide Desalting Spin Columns (ThermoScientific). Final eluates (desalted samples) contained 600 μL of 50% HPLC-grade Acetonitrile and 50% ultrapure HPLC-grade water. Desalted samples were then transferred to HPLC vials and were again dried down. […]", "data": [{"smiles": "O=C1O[C@H]([C@@H](O)CO)C(O)=C1O", "note": "[Vitamin C, reference compound]", "values": [{"measurement": "proteins/pathways up- and downregulated, exposed to UV radiation", "setting": "UV-irradiated cells", "result": "primarily upregulated proteins associated with cell cycle/DNA repair-related pathways"}, {"measurement": "proteins/pathways up- and downregulated, without UV treatment", "setting": "control conditions without UV", "result": "opposite effects"}]}]}
